Results: US12365685B2, “Substituted fused aromatic ring derivative, composition and use thereof” (Shenzhen TargetRx, Inc., priority 2019, dated 2025)
Where two headings read alike, the source gives them in different places.

Key:
RET V804M = RET V804M (Homo sapiens (Human), UniProt P07949, V804M); assay: Inhibition of kinase, RET V804M (HTRF KinEASE-TK); format: biochemical; conditions: reaction 20 minutes at room temperature
Procedure: (§1) Ret wt (Carna, Cat. No. 08-159-10 ug), RET (V804M), Active (Signalchem, Cat. No. R02-12GG), HTRF KinEASE-TK kit (Cisbio, Cat. No. 62TK0PEC), CEP-32496 (MCE, Cat. No. HY-15200), ATP (Sigma, Cat. No. A7699), DMSO (Sigma, Cat. No. D8418-1L), DTT (Sigma, Cat. No. D0632), MgCl2 (Sigma, Cat. No. M1028), 384-well plate (Labcyte, Cat. No. P-05525-BC).
(§2) Formulation of compound: The test compounds were dissolved in DMSO to obtain 10 mM stock solutions, which were then serially diluted 3-fold in DMSO to obtain 10 concentrations. At the time of addition, the compound was further diluted 10-fold with buffer.
(§3) In 5× kinase buffer A, Ret wt or RET V804M kinase was mixed with different concentrations of compounds prepared by pre-dilution for 10 minutes. Each concentration was tested in duplicate. The corresponding substrate and ATP were added, and reaction was performed at room temperature for 20 minutes (negative and positive controls were provided: the negative control was a blank control, and the positive control was CEP-32496). After completion of the reaction, detection reagents (reagents in the HTRF KinEASE-TK kit) were added. After incubating for 30 minutes at room temperature, enzyme activity in the presence of various concentrations of the compounds of the present disclosure was determined by Envision microplate reader, and inhibitory activity of different concentrations of the compounds on enzyme activity was calculated. The inhibitory activity of different concentrations of the compounds on enzyme activity was fitted by Graphpad 5.0 software, and the IC50 value was calculated, wherein A indicates IC50 10 nM, B indicates 10 nM<IC50≤50 nM, C indicates 50 nM<IC50≤100 nM, and D indicates IC50>100 nM.

Ret wt = Ret wt (Homo sapiens (Human), UniProt P07949); assay: Inhibition of kinase, Ret wt (HTRF KinEASE-TK); format: biochemical
Sequence of Ret wt (P07949 29-1114): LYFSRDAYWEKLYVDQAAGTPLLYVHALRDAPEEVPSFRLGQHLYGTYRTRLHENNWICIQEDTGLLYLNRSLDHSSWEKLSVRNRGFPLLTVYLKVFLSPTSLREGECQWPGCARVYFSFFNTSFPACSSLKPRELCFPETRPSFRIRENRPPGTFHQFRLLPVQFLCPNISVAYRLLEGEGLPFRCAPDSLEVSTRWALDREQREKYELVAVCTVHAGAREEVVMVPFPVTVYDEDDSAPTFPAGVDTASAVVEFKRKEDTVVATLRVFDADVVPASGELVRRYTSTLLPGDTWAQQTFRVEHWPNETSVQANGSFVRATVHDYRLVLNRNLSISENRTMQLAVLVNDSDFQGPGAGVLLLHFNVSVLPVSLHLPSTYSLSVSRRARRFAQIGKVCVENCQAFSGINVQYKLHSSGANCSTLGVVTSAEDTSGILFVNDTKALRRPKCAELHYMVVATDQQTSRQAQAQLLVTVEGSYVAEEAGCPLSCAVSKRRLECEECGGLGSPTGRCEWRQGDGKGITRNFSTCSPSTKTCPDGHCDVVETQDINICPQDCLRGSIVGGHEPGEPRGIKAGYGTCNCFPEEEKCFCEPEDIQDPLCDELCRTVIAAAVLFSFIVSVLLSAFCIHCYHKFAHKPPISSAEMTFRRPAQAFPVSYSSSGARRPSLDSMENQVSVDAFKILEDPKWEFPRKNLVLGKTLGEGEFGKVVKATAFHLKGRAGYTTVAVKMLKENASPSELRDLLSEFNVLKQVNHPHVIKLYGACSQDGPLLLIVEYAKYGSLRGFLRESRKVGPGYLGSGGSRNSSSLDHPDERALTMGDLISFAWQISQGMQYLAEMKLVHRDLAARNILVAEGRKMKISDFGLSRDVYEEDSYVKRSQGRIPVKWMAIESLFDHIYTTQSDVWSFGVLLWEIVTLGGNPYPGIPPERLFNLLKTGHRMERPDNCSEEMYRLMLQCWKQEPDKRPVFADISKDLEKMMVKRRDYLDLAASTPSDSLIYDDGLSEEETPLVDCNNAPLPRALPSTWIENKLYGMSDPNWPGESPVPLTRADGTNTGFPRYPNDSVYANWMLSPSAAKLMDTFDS
Procedure: as §1, §2, §3

Ba/F3 KIF5B-RET cells = assay: Cytotoxicity assay, Ba/F3 KIF5B-RET (CellTiter-Glo); format: cell-based; conditions: Mus musculus, BaF3; 72 hrs, CTG
Text: (§4) Inhibitory effect of example compounds on the activity of Ba/F3 KIF5B-RET and Ba/F3 FLT3-ITD cells was detected.
(§5) Materials and reagents: fetal bovine serum (FBS) (GIBCO, Cat. No. 10099141), CellTiter-Glo® Luminescent Cell Viability Assay (Promega, Cat #G7572), 96-well clear flat-bottom black-wall plate (Corning®, Cat #3603).
(§6) • 1. Cells in the logarithmic growth phase were harvested and counted with a […]. Cell viability was detected by a trypan blue exclusion method, ensuring that cell viability was 90% or more; • 2. The cell concentration was adjusted to 3000 cells/well; 90 μl of cell suspension was added to each well of the 96-well plate; • 3. The cells in the 96-well plate were incubated overnight under the condition of 37° C., 5% CO2, and 95% humidity. Dilution and Addition of Compound: • 1. 10-fold compound solutions were formulated by 3.16-fold serial dilution starting from a concentration of 10 μM, resulting in 9 concentrations. 10 μL of the compound solutions were added in each well of the 96-well plate seeded with cells in triplicate for each compound concentration; • 2. The cells in the 96-well plate added with compounds were further incubated under the condition of 37° C., 5% CO2, and 95% humidity for 72 hrs, and then CTG analysis was carried out. Plate Reading at the End: • 1. CTG reagent was thawed, and the cell plate was equilibrated at room temperature for 30 minutes; • 2. An equal volume ([…]) of CTG solution was added to each well; • 3. The cell plate was shaken on an orbital shaker for 5 minutes to lyse the cells; • 4. The cell plate was placed at RT for 20 minutes to stabilize the luminescence signal; • 5. Luminescence value was read. Data Processing
(§7) Data were analyzed by GraphPad Prism 5.0 software, and fitted by nonlinear S-curve regression to obtain a dose-response curve, from which IC50 values were calculated, wherein A indicates IC50≤10 nM, B indicates 10 nM<IC50≤50 nM, C indicates 50 nM<IC50≤100 nM, and D indicates IC50>100 nM. cell survival (%)=(Lumtest compound−Lumculture medium control)/(Lumcell control−Lumculture medium control)×100%.

Ba/F3 parental = assay: Cytotoxicity assay, Ba/F3 parental (CellTiter-Glo); format: cell-based; conditions: Mus musculus, BaF3; 72 hrs, CTG
Text: [Worded in the source for another cell line; this cell line is reported under the same test.] as §4, §5, §6, §7

Ba/F3 FLT3-ITD^F691L = assay: Cytotoxicity assay, Ba/F3 FLT3-ITD F691L (CellTiter-Glo); format: cell-based; conditions: Mus musculus, BaF3; 72 hrs, CTG
Ba/F3 FLT3-ITD^D835Y = assay: Cytotoxicity assay, Ba/F3 FLT3-ITD D835Y (CellTiter-Glo); format: cell-based; conditions: Mus musculus, BaF3; 72 hrs, CTG
Text: [Worded in the source for another variant; this variant is reported under the same test.] as §4, §5, §6, §7

Ba/F3 FLT3-ITD cells = assay: Cytotoxicity assay, Ba/F3 FLT3-ITD (CellTiter-Glo); format: cell-based; conditions: 72 hrs, CTG
Text: as §4, §5, §6, §7

Ba/F3 KIF5B-RET^V804M = assay: Cytotoxicity assay, Ba/F3 KIF5B-RET V804M (CellTiter-Glo); format: cell-based; conditions: Mus musculus, BaF3; 72 hrs, CTG
Text: [Worded in the source for another variant; this variant is reported under the same test.] as §4, §5, §6, §7

[1] = HTRF KinEASE-TK, reaction 20 minutes at room temperature, read-out: Ret wt IC50

Sequence of RET V804M (P07949 29-1114 V804M): as the sequence (P07949 29-1114) above, with V776M counted along it

IC50 (RET V804M)	IC50 (Ret wt; [1])	IC50 (Ret wt; read-out: IC50 against Ret wt)	SMILES	IC50 (Ba/F3 KIF5B-RET cells)	IC50 (Ba/F3 parental)	IC50 (Ba/F3 FLT3-ITD^F691L)	IC50 (Ba/F3 FLT3-ITD^D835Y)	IC50 (Ba/F3 FLT3-ITD cells)	IC50 (Ba/F3 KIF5B-RET^V804M)
0.35 nM	0.1 nM	< 0.2 nM	Cn1cc(-c2cc3ncc(-c4ccc(CC(=O)Nc5cc(C(C)(C)C(F)(F)F)on5)c(F)c4)n3cn2)cn1 [Compound T-8, 2-(2-fluoro-4-(7-(1-methyl-1H-pyrazol-4-yl)imidazo[1,2-c]pyrimidin-3-yl)phenyl)-N-(5-(1,1,1-trifluoro-2-methylpropan-2-yl)isoxazol-3-yl)acetamide]	15.4 nM					
0.87 nM	0.68 nM		Cn1cc(-c2ccc3c(-c4ccc(CC(=O)Nc5cc(C(C)(C)C(F)(F)F)on5)cc4)cnn3c2)cn1 [Compound T-11, 2-(4-(6-(1-methyl-1H-pyrazol-4-yl)pyrazolo[1,5-a]pyridin-3-yl)phenyl)-N-(5-(1,1,1-trifluoro-2-methylpropan-2-yl)isoxazol-3-yl)acetamide]	15.4 nM	1400 nM	1.12 nM	1.73 nM	0.2 nM	3.66 nM
0.23 nM	0.1 nM		Cn1cc(-c2cnc3c(-c4ccc(CC(=O)Nc5cc(C(C)(C)C(F)(F)F)on5)cc4)cnn3c2)cn1 [Compound T-10, 2-(4-(6-(1-methyl-1H-pyrazol-4-yl)pyrazolo[1,5-a]pyrimidin-3-yl)phenyl)-N-(5-(1,1,1-trifluoro-2-methylpropan-2-yl)isoxazol-3-yl)acetamide]	9.98 nM	930 nM	1.02 nM	1.83 nM	< 0.1 nM	8.15 nM
0.4 nM	0.18 nM		Cn1cc(-c2cnn3c(-c4ccc(CC(=O)Nc5cc(C(C)(C)C(F)(F)F)on5)cc4)cnc3c2)cn1 [Compound T-2, 2-(4-(7-(1-methyl-1H-pyrazol-4-yl)imidazo[1,2-b]pyridazin-3-yl)phenyl)-N-(5-(1,1,1-trifluoro-2-methylpropan-2-yl)isoxazol-3-yl)acetamide]	4.91 nM	3270 nM	1.43 nM	1.22 nM	0.79 nM	17.9 nM
1.12 nM	0.31 nM		Cn1cc(-c2cn3ncc(-c4ccc(CC(=O)Nc5cc(C(C)(C)C(F)(F)F)on5)cc4)c3cn2)cn1 [Compound T-12, 2-(4-(6-(1-methyl-1H-pyrazol-4-yl)pyrazolo[1,5-a]pyrazin-3-yl)phenyl)-N-(5-(1,1,1-trifluoro-2-methylpropan-2-yl)isoxazol-3-yl)acetamide]	9.98 nM					
0.2 nM	0.15 nM		Cn1cc(-c2cnn3c(-c4ccc(CC(=O)Nc5cc(C(C)(C)C(F)(F)F)on5)c(F)c4)cnc3c2)cn1 [Compound T-7, 2-(2-fluoro-4-(7-(1-methyl-1H-pyrazol-4-yl)imidazo[1,2-b]pyridazin-3-yl)phenyl)-N-(5-(1,1,1-trifluoro-2-methylpropan-2-yl)isoxazol-3-yl)acetamide]	2.3 nM	1820 nM	1.15 nM	1.15 nM	0.19 nM	10.8 nM
0.28 nM	0.16 nM		Cn1cc(-c2cc3ncc(-c4ccc(CC(=O)Nc5cc(C(C)(C)C(F)(F)F)on5)cc4)n3cn2)cn1 [Compound T-4, 2-(4-(7-(1-methyl-1H-pyrazol-4-yl)imidazo[1,2-c]pyrimidin-3-yl)phenyl)-N-(5-(1,1,1-trifluoro-2-methylpropan-2-yl)isoxazol-3-yl)acetamide]	7.17 nM				0.49 nM	
0.48 nM	0.24 nM		Cn1cc(-c2cnn3c(-c4ccc(CC(=O)Nc5cc(C(C)(C)C(F)(F)F)on5)cn4)cnc3c2)cn1 [Compound T-9, 2-(6-(7-(1-methyl-1H-pyrazol-4-yl)imidazo[1,2-b]pyridazin-3-yl)pyridin-3-yl)-N-(5-(1,1,1-trifluoro-2-methylpropan-2-yl)isoxazol-3-yl)acetamide]	60.8 nM	> 10000 nM	15.7 nM	10.6 nM	0.51 nM	559 nM
75.8 nM	> 100 nM		Cn1cc(-c2cnn3c(-c4ccc(NC(=O)Nc5cc(C(F)(F)F)ccc5F)cc4)cnc3c2)cn1 [Compound T-1, 1-(2-fluoro-5-(trifluoromethyl)phenyl)-3-(4-(7-(1-methyl-1H-pyrazol-4-yl)imidazo[1,2-b]pyridazin-3-yl)phenyl)urea]	534 nM	1090 nM			2.32 nM	
1.04 nM	0.45 nM		Cn1cc(Nc2ccnn3c(-c4ccc(CC(=O)Nc5cc(C(C)(C)C(F)(F)F)on5)cc4)cnc23)cn1 [Compound T-6, 2-(4-(8-((1-methyl-1H-pyrazol-4-yl)amino)imidazo[1,2-b]pyridazin-3-yl)phenyl)-N-(5-(1,1,1-trifluoro-2-methylpropan-2-yl)isoxazol-3-yl)acetamide]	6.2 nM	2180 nM	1.24 nM	2.38 nM	1.05 nM	20.9 nM
0.8 nM	0.25 nM		Cn1cc(Nc2nccn3c(-c4ccc(CC(=O)Nc5cc(C(C)(C)C(F)(F)F)on5)cc4)cnc23)cn1 [Compound T-5, 2-(4-(8-((1-methyl-1H-pyrazol-4-yl)amino)imidazo[1,2-a]pyrazin-3-yl)phenyl)-N-(5-(1,1,1-trifluoro-2-methylpropan-2-yl)isoxazol-3-yl)acetamide]	2.48 nM	2270 nM	1.43 nM	1.43 nM	0.1 nM	5.43 nM
0.21 nM	0.13 nM		Cn1cc(-c2cc3ncc(-c4ccc(CC(=O)Nc5cc(C(C)(C)C(F)(F)F)on5)cn4)n3cn2)cn1 [Compound T-3, 2-(6-(7-(1-methyl-1H-pyrazol-4-yl)imidazo[1,2-c]pyrimidin-3-yl)pyridin-3-yl)-N-(5-(1,1,1-trifluoro-2-methylpropan-2-yl)isoxazol-3-yl)acetamide]	51.2 nM	8070 nM	13.5 nM	9.08 nM	0.2 nM	125 nM
